The data set can be described thus: Release of Taxol from a coated ePTFE stent cover after implantation. Type of data set: in vivo. The conditions noted are these: first week after implantation; ePTFE stent cover with outer layer of Taxol, gelatin and poly(e-caprolactone) mixture (20:20:60). The text has this:
A polymeric stent cover, made of ePTFE, is provided with another layer of Taxol, gelatin, and poly(e-caprolactone) mixture (20:20:60) on the outside. 20% of the Taxol is released to the artery wall during the first week after implantation.

Regarding `CC(=O)O[C@H]1C(=O)[C@@]2(C)[C@H]([C@H](OC(=O)c3ccccc3)[C@]3(O)C[C@H](OC(=O)[C@H](O)[C@@H](NC(=O)c4ccccc4)c4ccccc4)C(C)=C1C3(C)C)[C@]1(OC(C)=O)CO[C@@H]1C[C@@H]2O` [Taxol], the “Taxol released to the artery wall” value amounted to 20%.

For the origin of these results see patent US20030009213A1, “Stent having cover with drug delivery capability” (priority 2000, published 2003).
